Assays:
latent HIV in U1 cells = assay: Reactivation of latent HIV in U1 cells by RT-qPCR; type: cell-based; settings: Na-Cro at 40 mM
Protocol: Cell culture: J-Lat Al cells (derived from Jurkat cells harboring HIV LTR-Tat-GFP gene) and U1 cells (promonocytic cell line harboring one copy of HIV genome with defective tat gene) were obtained from NIH AIDS Reagent Program and cultured at 37° C. with 5% CO2 in RPM11640 medium containing 10% FBS and 1% penicillin-streptomycin as previously described (see G. Jiang, et al. PLoS Pathogens 11, e1005066 (2015)).
For inhibiting ACSS2 and crotonylation, cells were pretreated with ACSS2 inhibitor, AR12 (SELLECK CHEMICALS™, Houston, Tex.), for 30 minutes, followed by Na-Cro treatment for 4 or 18 hours.
Real-Time PCR Analysis: HIV gene expression was measured using real-time PCR in J-Lat Al cells treated with LRAs. Total nucleic acid was extracted using RNEASY™ Kit, genomic DNA digested using DNase I and total RNA reverse transcribed using Superscript III to synthesize cDNA. […] […] TAMRA-3′ (SEQ ID NO:3).

[1] = test system: HIV LTR in J-Lat A1 cells; assay: Chromatin immunoprecipitation (ChIP) at the HIV LTR; type: cell-based; settings: J-Lat A1 cells, 30 mM Na-Cro for 4 hours
Text: (§1) FIG. 2 is a series of images and graphs showing that histone crotonylation by sodium crotonate addition re-programs histone tails at the HIV LTR. Panel A illustrates that Na-Cro addition increased global expression of H3K4Cro, H3K4Ac, and H3K18Ac while decreasing H3K27Me3. Panel B illustrates expression of transcription factors after Na-Cro addition in J-Lat Al cells. Panels C-E illustrate that Na-Cro addition re-programmed histone tails at the HIV LTR. Chromatin immunoprecipitation (ChIP) assay was performed by using anti-H3K4Cr, anti-H3K4Ac, and anti-H3K27Me3 antibodies after J-Lat Al cells were treated with 30 mM Na-Cro for 4 hours. PCR primers were specific for the HIV LTR region.
FIG. 7 is a series of graphs showing that induction of de-crotonylation of histone tail at HIV LTR is independent of SIRTs. Panel A illustrates that J-Lat Al cells were pre-treated with either 50 μM RSV or 1 mM NAM, followed by 30 mM Na-Cro addition to reactivate latent HIV expression. Untreated controls were compared with positive controls involving individual treatment of Na-Cro, RSV, or NAM. *, p<0.05; **, p<0.01 compared with control treatment. #, p<0.05 compared with Na-Cro treatment. Panel B illustrates that gene expression of sirt1 or sirt3 was measured by RT-qPCR in J-Lat Al cells treated with either 25 μM RSV, 50 μM RSV, or 1 mM NAM. *, p<0.05 and **, p<0.01 compared with control treatment. Panels C and D illustrate that histone crotonylation induces binding of SIRT3 and SIRT1 at the HIV LTR. J-Lat Al cells were treated with 30 mM Na-Cro for 4 hours and analyzed by ChIP assays using anti-SIRT1 or anti-SIRT3 antibodies. *, p<0.05 compared with control treatment.
Chromatin Immunoprecipitation (ChIP): J-Lat Al cells (2.5 to 5 million) were utilized in ChIP assays with anti-H3K18Ac, anti-H3K4Cr, anti-H3K27Me3, anti-H3K4Ac, anti-SIRT3 (CELL SIGNALING TECHNOLOGY®), and anti-SIRT1 (CELL SIGNALING TECHNOLOGY®) antibodies. ChIP assays were performed using […]® Kit from CELL SIGNALING TECHNOLOGY® as per the manufacturer's recommendations. Samples were cross-linked using formaldehyde and 150-1000 bp fragments were made using Micrococcal Nuclease digestion and 7 cycles of 30 seconds on/30 seconds off sonication. Antibodies were used to probe respective proteins. Purification of DNA was performed using the […]® Kit Protocol. Purified ChIP DNA was used in SYBR® Green qPCR using ChIP primers specific for HIV LTR.

[2] = test system: histone tails and transcription factors in J-Lat A1 cells; assay: Western blot of global histone modifications and transcription factors; type: cell-based
Text: as §1
Western Blot Analysis: Western blot analysis was performed by using one million cells treated with LRAs for 6 or 18 hours. Whole cell lysates were prepared using RIPA buffer. Nuclear Extracts were prepared using EPIQUIK™ Total Histone Extraction Kit ([…]™, Farmingdale N.Y.). Antibodies (CELL SIGNALING TECHNOLOGY®, Boston, Mass.) for Cyclin T1, CDK9, CDK9-P, NF-kB, GAPDH, and total H3 were used to detect protein expression under different drug conditions. Antibodies for H3K4Cro (PTM BIOLABS™, Chicago, Ill.), H3K27Me3 (CELL SIGNALING TECHNOLOGY®), H3K4Ac (CELL SIGNALING TECHNOLOGY®), and H3K18Ac (CELL SIGNALING TECHNOLOGY®) were used to measure histone modifications.

[3] = test system: T cells in PBMCs from healthy HIV-negative donors; assay: Immune activation and checkpoint markers in PBMCs by flow cytometry; type: cell-based, human
Protocol: PBMCs from healthy HIV-negative donors (n=5) were treated with 100 ng/ml PMA 2 plus 2 μg/ml ionomycin, 30 mM Na-Cro overnight, and analyzed by flow cytometry for the expression of CD4, CD8, HLA-DR, CD69, or PD-1 in CD3+ T cells. Percentage of cells expressing immune activation markers was presented for CD3+ cells (see panel A), CD3+CD4+ T cells (see panel B), and CD3+ CD8+ T cells (see panel C). ***, p<0.001, compared with control after 24 or 72 hour treatment.
It was examined whether induction of histone crotonylation in T cells impacted the level of immune activation in these cells. Peripheral blood mononuclear cells from HIV-negative healthy donors (n=5) were treated with PMA/Ionomycin or Na-Cro for 24 hours or 72 hours. Changes in the immune cell status were examined by measuring the levels of HLA-DR, CD69, and PD-1 in the T cell subsets by flow cytometric analysis (see FIG. 9). […] Instead, it is associated with the suppression of immune activation, which may have a beneficial effect on patient immune function.

[4] = healthy donors n=5, 30 mM Na-Cro

## C/C=C/C(=O)[O-].[Na+] [Na-Cro, sodium crotonate]
Latent HIV in U1 cells
  increase in viral transcription compared to untreated controls: 6 fold
[1]
  acetylation at H3K4 at the HIV LTR: increased
  binding of SIRT1 at the HIV LTR: efficiently bound to the HIV LTR at higher levels than controls
  binding of SIRT3 at the HIV LTR: efficiently bound to the HIV LTR at higher levels than controls
  crotonylation at H3K4 at the HIV LTR: increased
  histone tri-methylation at H3K27 at the HIV LTR: decreased
[2]; J-Lat A1 cells
  expression of transcription factors involved in HIV transcription: did not alter transcription factors that are involved in HIV transcription except a minor induction of CDK9 protein
[2]; Na-Cro-treated T cells
  global H3K4 acetylation: increased
  global H3K4 crotonylation: increased
  global H3K18 acetylation: increased
  global H3K27 trimethylation: markedly decreased
[3]; [4]
  HLA-DR expression in CD4+ or CD8+ T cells: inhibited HLA-DR expression at 24 and 72 hours
  PD-1 expression in CD3+ T cells: did not change
  PD-1 expression in CD4+ or CD8+ T cells: did not modulate PD-1 expression
[3]; healthy donors n=5, 30 mM Na-Cro or PMA plus ionomycin, 24 or 72 hours
  HLA-DR expression in CD3+ T cells: suppressed HLA-DR expression at 72 hours post-treatment

Reference: patent US20230087766A1, “METHODS OF REACTIVATING LATENT HUMAN IMMUNODEFICIENCY VIRUS AND RELATED COMPOSITIONS” (priority 2017, published 2023)
